{"source": "patent US20230329140A1", "about": "“MAC[…]” (Ralco Nutrition Inc., priority 2019, published 2023)", "key": {"corn": {"system": "corn", "test": "Greenhouse corn pot trial with magnesium lactate", "type": "in vivo", "procedure": "The corn trial that was conducted using MgL had one corn seed planted in each of the 60 individually marked pots using six different treatments in a randomized complete block design. Plants were grown in the greenhouse under controlled and ideal conditions. All pots were handled and cared for the same exact way throughout their entire growing season. During this trial the emergence hours, the number of plants emerged, and plant height measurements were taken at specific plant stages and recorded. Several measurements were documented when the trial was harvested which were V10 plant height, V10 chlorophyll readings, stalk diameter, and biomass."}, "soybean": {"system": "soybean", "test": "Greenhouse soybean pot trial with magnesium lactate", "type": "in vivo", "procedure": "Materials and Methods: One soybean seed was planted in each of the 60 individually marked pots using six different treatments in a randomized complete block design. Plants were grown in the greenhouse under controlled and ideal conditions. All pots were handled and cared for the same exact way throughout their entire growing season. Several measurements were recorded during this trial starting with emergence hours, the number of plants emerged, and unifoliate, 1st trifoliate, 3rd trifoliate, 5th trifoliate, and 7th trifoliate leaf area readings. […] of the measurements that were recorded when this trial was harvested are the number of pods, weight of pods, total soybean seed weight per treatment, and average soybean seed weight per pot.\nThe magnesium lactate improved the efficiency with which the plant builds chlorophyll when it was applied foliar in sparingly small quantities to soybean plants early in their growth stage."}}, "data": [{"smiles": "CC(O)C(=O)[O-].CC(O)C(=O)[O-].[Mg+2]", "note": "(stereo not drawn) [MgL, magnesium lactate]", "values": [{"measurement": "overall performance in comparison to conventional magnesium compounds, such magnesium sulfate (MgSO)", "setting": "corn; corn trial", "result": "performed better overall"}, {"measurement": "corn biomass", "setting": "corn; greenhouse pots, FIG. 14", "result": "positive impact"}, {"measurement": "growth and development of corn", "setting": "corn; greenhouse pots, FIGS. 10-14", "result": "positive impact"}, {"measurement": "efficiency with which the plant builds chlorophyll", "setting": "soybean; applied foliar in sparingly small quantities to soybean plants early in their growth stage", "result": "improved"}, {"measurement": "soybean yield (average soybean seed weight per pot)", "setting": "soybean; greenhouse pots, FIG. 8", "result": "positive impact"}, {"measurement": "overall performance in comparison to conventional magnesium compounds, such magnesium sulfate (MgSO)", "setting": "soybean; soybean trial", "result": "performed better overall"}]}]}
